# Like-named read-outs stand apart in the source and are kept apart here. Numbered stars: 1 amine (or outer) side, 2 acyl side, 3 side chain; on linkers, the order of the positions; unused ones are H or OH. Bridge positions count the residues as written; N and C are the ends. Square brackets hold non-standard residues; d marks the D form. Peptide text beside a SMILES is read from it. * marks the point of attachment. X1 = O=C1C[C@@H](C(=O)[*:2])N([*:1])C[C@H]1CS[C@@H]1CN2CCC1CC2; NMePhe(4-NMe2) = CN[C@@H](Cc1ccc(N(C)C)cc1)C(=O)O; Picolinoyl(3-OH) = O=C(c1ncccc1O)*; Phg = N[C@H](C(=O)O)c1ccccc1; Orn = NCCC[C@H](N)C(=O)O; dAbu = CC[C@@H](N)C(=O)O; Dap = NC[C@H](N)C(=O)O
# Assays:
# [1] = system: Enterococcus faecalis (ATCC 29212); assay: microbe, parasite or virus in culture; assay type: cell-based
# Method: (§1) The antibiotic activity of the peptides synthesized in this study was initially assayed using a disk assay where samples were applied to sterile paper disks placed on a fresh lawn of bacterial culture on appropriate agar plates as required by the organism. These were then incubated for 16 hr at 37° C. and the zone of growth inhibition surrounding the disks recorded. For quantitative assessment of antibiotic activity in liquid culture, the minimal inhibitory concentration (MIC) of peptides was determined by serial dilution studies. The peptides and standard antibiotics were dissolved in DMSO and the final concentration of DMSO in the liquid cultures was 5%. Both S. aureus RN4220 and E. coli BAS901 were able to grow efficiently at this level of DMSO.
# [2] = system: Staphylococcus aureus RN4220/pJIM2246; assay: microbe, parasite or virus in culture; assay type: cell-based
# Method: as §1
# [3] = system: Staphylococcus aureus (ATCC 29213); assay: microbe, parasite or virus in culture; assay type: cell-based
# Method: as §1
# [4] = system: Staphylococcus epidermidis (ATCC 14990); assay: microbe, parasite or virus in culture; assay type: cell-based
# Method: as §1
# [5] = system: Staphylococcus saprophyticus (ATCC 15305); assay: microbe, parasite or virus in culture; assay type: cell-based
# Method: as §1
# [6] = system: Streptococcus pneumoniae (ATCC 49619); assay: microbe, parasite or virus in culture; assay type: cell-based
# Method: as §1
# [7] = system: Staphylococcus aureus RN4220/pJIM2246ΩermB; assay: microbe, parasite or virus in culture; assay type: cell-based
# Method: as §1
# [8] = system: Staphylococcus epidermidis (ATCC 12228); assay: microbe, parasite or virus in culture; assay type: cell-based
# Method: as §1
# [9] = system: Staphylococcus aureus RN4220/pJIM2246Ωvgb; assay: microbe, parasite or virus in culture; assay type: cell-based
# Method: as §1
# [10] = system: Streptococcus pneumoniae (ATCC 6305); assay: microbe, parasite or virus in culture; assay type: cell-based
# Method: as §1
# [11] = system: Escherichia coli BAS901; assay: disk assay, zone of growth inhibition; assay type: cell-based; settings: Escherichia coli BAS901, hyperpermeable, 16 hr at 37° C.
# Method: Partially purified material from these reactions was used to test their antibiotic properties in disk diffusion susceptibility assays using E. coli BAS901.
# as §1
# (§2) Crude material from the initial synthesis reactions was used to test the potential of the analogues as antibiotics in susceptibility assays where a solution of the compound was placed on a paper disk on a lawn of bacteria. As described above, E. coli BAS901 is deficient in the Imp/OstA protein, an outer membrane protein, involved in cell envelope biogenesis (1, 5). […] These were then incubated for 16 hrs at 37° C. and the zone of growth inhibition surrounding the disks recorded.
# [12] = system: E. coli (ATCC 25922); assay: disk assay, zone of growth inhibition; assay type: cell-based, Escherichia coli; settings: wild-type
# Method: as §1, §2
# [13] = system: S. saprophyticus (ATCC 15305); assay: disk assay, zone of growth inhibition; assay type: cell-based, Staphylococcus saprophyticus
# Method: as §1, §2
# [14] = system: E. coli BAS901/pUC19; assay: disk assay, zone of growth inhibition; assay type: cell-based, Escherichia coli
# From the text: A hyperpermeable E. coli strain, E. coli BAS901, harboring a plasmid constitutively expressing Vgb was created for in vivo studies. The plasmids pVGB, described previously in [14], and […] were digested with Xbal and BamHI, to yield an approximately 1 kb fragment containing a ribosomal binding site upstream of vgb, and linearized pUC19 backbone, respectively. The vgb fragment was then subcloned into the linearized pUC19 backbone downstream of pLac yielding pUC19-VGB. Both pUC19-VGB and pUC19 were transformed E. coli BAS901.
# as §1
# (§3) Crude material from the initial synthesis reactions was used to test the potential of the analogues as antibiotics in susceptibility assays where a solution of the compound was placed on a paper disk on a lawn of bacteria. As described above, E. coli BAS901 is deficient in the Imp/OstA protein, an outer membrane protein, involved in cell envelope biogenesis (1, 5). […] The antibiotic activity of the peptides synthesized in this study was initially assayed using a disk assay where samples were applied to sterile paper disks placed on a fresh lawn of bacterial culture on Tryptic Soya, Luria Broth, or Brain Heart Infusion Agar plates. These were then incubated for 16 hrs at 37° C. and the zone of growth inhibition surrounding the disks recorded.
# [15] = system: B. subtilis W23; assay: disk assay, zone of growth inhibition; assay type: cell-based, Bacillus subtilis
# Method: as §1, §2
# [16] = system: B. subtilis L5706; assay: disk assay, zone of growth inhibition; assay type: cell-based, Bacillus subtilis
# Method: as §1, §2
# [17] = system: Enterococcus faecium CP54-32; assay: disk assay, zone of growth inhibition; assay type: cell-based
# Method: as §1, §3
# [18] = system: Bacillus subtilis 1A752; assay: disk assay, zone of growth inhibition; assay type: cell-based
# Method: as §1, §3
# [19] = system: Micrococcus luteus; assay: disk assay, zone of growth inhibition; assay type: cell-based
# Method: as §1, §3
# [20] = system: B. subtilis 1A752; assay: bacteriostatic or bactericidal action; assay type: cell-based, Bacillus subtilis
# [21] = system: E. coli BAS901; assay: checker-board synergy test with dalfopristin; assay type: cell-based, Escherichia coli; settings: microtiter plates, checker-board technique
# From the text: (§4) Quinupristin and dalfopristin act in a synergistic manner.
# [22] = system: B. subtilis 1A752; assay: checker-board synergy test with dalfopristin; assay type: cell-based, Bacillus subtilis; settings: microtiter plates, checker-board technique
# From the text: as §4
# [23] = system: E. coli BAS901; assay: bacteriostatic or bactericidal action; assay type: cell-based, Escherichia coli
# [24] = system: Staphylococcus epidermidis; assay: growth inhibition, text summary of disk assay; assay type: cell-based; settings: strain not given
# Method: as §1, §3
# [25] = system: Enterococcus faecalis; assay: growth inhibition, text summary of disk assay; assay type: cell-based; settings: strain not given
# Method: as §1, §3
# [26] = system: Streptococcus pneumoniae; assay: growth inhibition, text summary of disk assay; assay type: cell-based; settings: strain not given
# Method: as §1, §3
# [27] = system: Bacillus subtilis; assay: growth inhibition, text summary of disk assay; assay type: cell-based; settings: strain not given
# Method: as §1, §3
# [28] = target: T1, Vgb (Staphylococcus aureus, UniProt P17978); assay: inhibition of the streptogramin inactivating enzyme Vgb; assay type: biochemical; settings: concentrations of up to 0.4 mM
# T1 construct: made in house
# T1 sequence (P17978 whole entry): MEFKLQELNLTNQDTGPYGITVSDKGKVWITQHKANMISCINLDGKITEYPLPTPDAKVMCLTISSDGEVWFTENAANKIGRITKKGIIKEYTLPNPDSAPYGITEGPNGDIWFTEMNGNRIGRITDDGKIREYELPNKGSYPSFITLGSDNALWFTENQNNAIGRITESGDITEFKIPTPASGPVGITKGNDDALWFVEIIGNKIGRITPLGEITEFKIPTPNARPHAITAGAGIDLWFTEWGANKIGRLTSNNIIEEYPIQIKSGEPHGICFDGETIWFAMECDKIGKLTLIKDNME
# Method: On-resin chemical cyclization of 5 provided sufficient material for more extensive analysis of antibacterial activity and investigation of its ability to inhibit the streptogramin inactivating enzyme Vgb. This enzyme however was insensitive to 5 in concentrations of up to 0.4 mM. […] Regardless of the actual mechanism, the design of these streptogramin-tyrocidine chimeras of the present invention result in antibiotics that are not recognized by a streptogramin inactivation enzyme.
compound,measurement,setting,value
"CC[C@H]1NC(=O)[C@@H](NC(=O)c2ncccc2O)[C@@H](C)OC(=O)[C@H](c2ccccc2)NC(=O)[C@@H]2CC(=O)[C@H](CS[C@@H]3CN4CCC3CC4)CN2C(=O)[C@H](Cc2ccc(N(C)C)cc2)N(C)C(=O)[C@@H]2CCCN2C1=O [Quinupristin, quinupristin, reference compound] ({Picolinoyl(3-OH)}-T[dAbu]P[NMePhe(4-NMe2)][X1][Phg]; ester 1-C)",MIC,"[1]; ATCC29212, Enterococcus faecalis (ATCC 29212), read-out: MIC",8 µg/mL
same,MIC,[2],2 µg/mL
same,MIC,"[3]; ATCC29213, read-out: MIC",4 µg/mL
same,MIC,"[4]; ATCC14990, Staphylococcus epidermidis (ATCC 14990), read-out: MIC",1 µg/mL
same,MIC,"[5]; ATCC15305, Staphylococcus saprophyticus (ATCC 15305), read-out: MIC",8 µg/mL
same,MIC,"[6]; ATCC49619, Streptococcus pneumoniae (ATCC 49619), read-out: MIC",0.5 µg/mL
same,MIC,[7]; Staphylococcus aureus,8 µg/mL
same,MIC,"[8]; ATCC12228, Staphylococcus epidermidis (ATCC 12228), read-out: MIC",0.5 µg/mL
same,MIC,[9]; Staphylococcus aureus,8 µg/mL
same,MIC,"[10]; ATCC6305, Streptococcus pneumoniae (ATCC 6305), read-out: MIC",1 µg/mL
same,Zone of Inhibition,[11],2.2 cm
same,Zone of Inhibition,[12],n.i.
same,Zone of Inhibition,[13],2.3 cm
same,Zone of Inhibition,[14],2.2 cm
same,Zone of Inhibition,[14]; listed as quinupristin,exhibit a zone of inhibition
same,Zone of Inhibition,[15],2.1 cm
same,Zone of Inhibition,[16],2.1 cm
same,Zone of Inhibition,[17],1.8 cm
same,Zone of Inhibition,[18],1.8 cm
same,Zone of Inhibition,[19],2.7 cm
CC(C)C[C@@H]1NC(=O)[C@H](CCCN)NC(=O)[C@H]([C@@H](C)O)NC(=O)[C@@H](NC(=O)c2ncccc2O)CNC(=O)[C@H](Cc2ccccc2)NC(=O)[C@@H]2CCCN2C(=O)[C@@H](Cc2ccccc2)NC1=O [Compound 5] ({Picolinoyl(3-OH)}-[Dap]T[Orn]L[dF]PF; lactam 1-C),MIC,"[1]; ATCC 29212, 16 h",128 µg/mL
same,MIC,[2],256 µg/mL
same,MIC,[3],256 µg/mL
same,MIC,"[4]; ATCC 14990, 16 h",64 µg/mL
same,MIC,"[5]; ATCC 15305, 16 h",64 µg/mL
same,MIC,"[6]; ATCC 49619, 16 h",128 µg/mL
same,MIC,[7]; Staphylococcus aureus RN4220/pJIM2246ΩermB,256 µg/mL
same,MIC,"[8]; ATCC 12228, 16 h",64 µg/mL
same,MIC,[9]; Staphylococcus aureus RN4220/pJIM2246Ωvgb,256 µg/mL
same,MIC,"[10]; ATCC 6305, 16 h",32 µg/mL
same,Zone of Inhibition,[12],n.i.
same,bacteriostatic or bactericidal,[20],bacteriostatic and not bactericidal
same,synergy with dalfopristin,[21],"additive, not synergistic"
same,synergy with dalfopristin,[22],"additive, not synergistic"
same,bacteriostatic or bactericidal,[23],bacteriostatic and not bactericidal
same,growth inhibition activity,[24],active
same,growth inhibition activity,[25],active
same,growth inhibition activity,[26],active
same,growth inhibition activity,[27],active
same,inhibition of Vgb,[28],insensitive
